The results in this text go back to patent US20110177178A1, “Extracts of Deschampsia antarctica Desv. with antineoplastic activity” (Uxmal S.A., Chile, priority 2007, published 2011).

Each structure is given as a SMILES string.

The subject of the experiment is LoVo colorectal cancer cells. Nature of the experiment: in vitro growth / proliferation of LoVo colon cancer cells. Format: cell-based, human. Particulars: for antineoplastic activity of peaks and peak combinations: 450 uM, FIG. 14. The procedure:
FIG. 2. […] The extracts were prepared with water, then dried and dissolved in methanol. Control contains no extract added and the methanol control is a control containing 5% methanol as was used to dissolve the dried aqueous extract. FIG. 3. Effects of ethyl acetate (a and b) and methanol (c and d) extracts at to concentration of 75 ug/ml on LoVo colorectal cancer cells (a and c) and we38 human fetal fibroblast cells (b and d). FIG. 4. […] An assay to test the biological activity of individual peaks was carried out using the same antineoplastic test already evaluated for the whole extract. The main purpose of these studies was to identify who are the peaks with the highest biological activity and to determine a synergistic effect among the different compounds.

With `O=c1cc(-c2ccc(O)c(O)c2)oc2c(C3OC(CO)C(O)C(O)C3OC3OCC(O)C(O)C3O)c(O)cc(O)c12` (single isomer, unassigned; peak 1) [peak 1, 2″-O-β-O arabinopyranoside orientin (orientin traces)], the “antineoplastic activity of peaks and peak combinations” value is listed as “only a weak antineoplastic activity”.
Turning to `COc1cc(O)c2c(=O)cc(-c3ccc(O)c(O)c3)oc2c1C1OC(CO)C(O)C(O)C1OC1OCC(O)C(O)C1O` (single isomer, unassigned; peak 2) [peak 2, isowertiajaponine (7-O-methyl orientin-2″-O-arabinopiranoside)], the “antineoplastic activity of peaks and peak combinations” value is “only a weak antineoplastic activity”. Also, under “LoVo, corresponds to 1.7 mM”, the “concentration at which inhibitory effect of cellular proliferation was observed, converted” value came out at 1000 µg/mL. Also, the “concentration at which inhibitory effect of cellular proliferation was observed” value (LoVo, tested at 0.017, 0.17 and 1.7 mM, FIG. 4) is listed as 1.7 mM.
